Laboratory results reported in ChEMBL document CHEMBL1144454, “Design, synthesis, and biological activities of pyrrolylethanoneamine derivatives, a novel class of monoamine oxidases inhibitors” (J Med Chem, 2005).

Key:
[1] = Selectivity for bovine Monoamine oxidase A as ratio of Ki(MAO-B)/Ki(MAO-A)
[2] = target: Amine oxidase [flavin-containing] A (Bos taurus) (UniProt P21398); assay: Inhibitory concentbovineion for bovine Monoamine oxidase A
[3] = target: Amine oxidase [flavin-containing] B (Bos taurus) (UniProt P56560)
Chain of Amine oxidase [flavin-containing] B (Bos taurus) (P56560 whole entry, looked up): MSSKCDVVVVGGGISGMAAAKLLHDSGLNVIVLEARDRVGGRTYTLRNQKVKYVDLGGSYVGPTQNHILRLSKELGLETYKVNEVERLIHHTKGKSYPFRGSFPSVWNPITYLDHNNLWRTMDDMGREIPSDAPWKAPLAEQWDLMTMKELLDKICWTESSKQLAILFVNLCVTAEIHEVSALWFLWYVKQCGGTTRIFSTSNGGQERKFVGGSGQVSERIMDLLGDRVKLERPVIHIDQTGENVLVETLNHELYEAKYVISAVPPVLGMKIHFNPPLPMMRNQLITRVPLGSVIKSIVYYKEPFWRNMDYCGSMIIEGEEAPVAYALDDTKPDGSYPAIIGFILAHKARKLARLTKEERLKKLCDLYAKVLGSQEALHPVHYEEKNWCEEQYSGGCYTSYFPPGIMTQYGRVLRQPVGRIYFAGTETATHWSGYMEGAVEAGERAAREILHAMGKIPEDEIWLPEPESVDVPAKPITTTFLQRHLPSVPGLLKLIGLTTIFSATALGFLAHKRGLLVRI

| SMILES | A-selectivity [1] | Ki [2] [µM] | Ki [3] [µM] |
| --- | --- | --- | --- |
| Cn1cccc1C(=O)C(c1ccccc1)N1CCN(Cc2ccccc2)CC1 (stereo not drawn) | 11 | 0.93 | 10 |
| Cn1cccc1C(=O)C(c1ccccc1)N1C(=O)c2ccccc2C1=O (stereo not drawn) | > 123 | 0.81 | > 100 |
| Cn1cccc1C(O)C(c1ccccc1)N1CCCCC1 (single isomer, unassigned; form 1) [listing 1 of 2 here] | – | 0.52 | > 10 |
| Cn1cccc1C(=O)C(c1ccccc1)N1CCCC1 (racemic) | – | 0.0075 | 600 |
| Cn1cccc1C(O)C(c1ccccc1)N1CCCCC1 (single isomer, unassigned; form 1) [listing 2 of 2 here] | > 19 | – | – |
| Cn1cccc1C(O)C(c1ccccc1)N1CCCCC1 (racemic; form 2) [listing 1 of 2 here] | 140 | – | – |
| Cn1cccc1C(=O)[C@H](c1ccccc1)N1CCCC1 | – | 0.0095 | 500 |
| Cn1cccc1C(O)C(c1ccccc1)N1CCCCC1 (racemic; form 1) [listing 1 of 2 here] | – | 31 | 9.22 |
| Cn1cccc1C(=O)C(c1ccccc1)N1CCOCC1 (stereo not drawn) | > 286 | 0.35 | > 100 |
| Cn1cccc1C(=O)C(c1ccccc1)N1CCCCC1 (racemic) | 5210 | 0.096 | 500 |
| CCOc1ccc(NC(C(=O)c2cccn2C)c2ccccc2)cc1 (stereo not drawn) | > 121 | 0.83 | > 100 |
| CN1CCN(C(C(=O)c2cccn2C)c2ccccc2)CC1 (stereo not drawn) | > 288 | 0.347 | > 100 |
| Cn1cccc1C(=O)[C@@H](c1ccccc1)N1CCCCC1 | – | 0.01 | – |
| Cn1cccc1C(O)C(c1ccccc1)N1CCCCC1 (racemic; form 2) [listing 2 of 2 here] | – | 1 | 140 |
| CC(C(=O)c1cccn1C)N1CCCCC1 (stereo not drawn) | – | 0.038 | 36 |
| Cn1cccc1C(=O)C(c1ccccc1)N1CCSCC1 (stereo not drawn) | > 1000 | 0.1 | > 100 |

| SMILES | A-selectivity [1] | Ki [2] [µM] | Ki [3] [µM] |
| --- | --- | --- | --- |
| Cn1cccc1C(=O)[C@@H](c1ccccc1)N1CCCC1 | – | 0.0035 | 700 |
| CN(C)C(C(=O)c1cccn1C)c1ccccc1 (stereo not drawn) | 500 | 1.75 | 875 |
| Cn1cccc1C(O)C(c1ccccc1)N1CCCCC1 (single isomer, unassigned; form 2) [listing 1 of 2 here] | 0.18 | – | – |
| Cn1cccc1C(=O)[C@H](c1ccccc1)N1CCCCC1 | 4100 | 0.1 | 410 |
| Cn1cccc1C(O)C(c1ccccc1)N1CCCCC1 (stereo in doubt) [listing 1 of 2 here] | 77 | – | – |
| Cn1cccc1C(=O)CN1CCCCC1 | – | 0.007 | 15 |
| Cn1cccc1C(O)C(c1ccccc1)N1CCCCC1 (single isomer, unassigned; form 2) [listing 2 of 2 here] | – | 7 | 1.24 |
| Cn1cccc1C(=O)[C@H](c1ccccc1)N1CCSCC1 | 1220 | 0.082 | 100 |
| Cn1cccc1C(O)C(c1ccccc1)N1CCCCC1 (single isomer, unassigned; (-)) [listing 1 of 2 here] | 0.31 | – | – |
| Cn1cccc1C(=O)C(N)c1ccccc1 (stereo not drawn) | 442 | 0.095 | 42 |
| Cn1cccc1C(O)C(c1ccccc1)N1CCCCC1 (single isomer, unassigned; (-)) [listing 2 of 2 here] | – | 55 | 17.2 |
| Cn1cccc1C(O)C(c1ccccc1)N1CCCCC1 (stereo in doubt) [listing 2 of 2 here] | – | 0.6 | 46 |
| Cn1cccc1C(O)C(c1ccccc1)N1CCCCC1 (racemic; form 1) [listing 2 of 2 here] | 0.29 | – | – |
| Cn1cccc1C(=O)[C@@H](c1ccccc1)N1CCSCC1 | 5260 | 0.076 | 400 |
| Cn1cccc1C(O)CN1CCCCC1 (stereo not drawn) | 47 | 0.51 | 23.9 |
